Values after ≈ are worked out from the molar mass of the structure shown. Values joined by “and” are separate entries in the source; they are usually repeats but may differ in a detail not shown here. Equal entries are not always repeated. Where two headings read alike, the source gives them in different places.
Key:
HepG2 cells [1] = test system: HepG2 cells
Experimental: (§1) Cytotoxicity of the tested compounds was measured using the standard hepatic cell line HepG2. The used CellTiter 96® assay is based on the reduction of tetrazolium dye (MTS) in living cells to formazan, which is then determined colorimetrically.

[2] = test system: eight human pathogenic fungi; assay: Antifungal microdilution broth method, whole panel; assay type: cell-based; details: not reported in Table 2, read-out: MIC, all fungal strains tested
in vitro [3] = details: human
[4] = test system: four Gram-positive and four Gram-negative bacterial strains; assay: Antibacterial microdilution broth method, whole panel; assay type: cell-based
[5] = target: BuChE from equine serum (EqBuChE) (Equus caballus, UniProt P81908); assay: biochemical
in vitro [6] = details: human; for IC50 at 24 h: HepG2 cells
Experimental: as §1

HepG2 cells [7] = assay: LDH release assay (CytoTox 96), membrane integrity; details: read-out: EC50 LDH release assay
[8] = target: AChE from electric eel (EeAChE) (Electrophorus electricus, UniProt O42275); assay: biochemical; assay type: biochemical
[9] = test system: Enterococcus faecalis ATCC 29212; assay: Antibacterial microdilution broth method (EUCAST); assay type: cell-based
[10] = test system: Escherichia coli ATCC 25922; assay: Antibacterial microdilution broth method (EUCAST); assay type: cell-based
[11] = test system: Klebsiella pneumoniae ATCC 10031; details: for MIC KP 24 h: 24 h incubation; for MIC KP 48 h: 48 h incubation
[12] = test system: Staphylococcus epidermidis ATCC 12228; assay: Antibacterial microdilution broth method (EUCAST); assay type: cell-based
[13] = test system: methicillin-resistant Staphylococcus aureus ATCC 43300; assay: Antibacterial microdilution broth method (EUCAST); assay type: cell-based; details: ATCC 43300 / MRSA
[14] = test system: Pseudomonas aeruginosa ATCC 27853; assay: Antibacterial microdilution broth method (EUCAST); assay type: cell-based
[15] = test system: Acinetobacter baumannii ATCC 19606; assay: Antibacterial microdilution broth method (EUCAST); assay type: cell-based
[16] = test system: Staphylococcus aureus ATCC 29213; assay: Antibacterial microdilution broth method (EUCAST); assay type: cell-based
[17] = test system: Candida albicans ATCC 24443; assay: microbe, parasite or virus in culture; assay type: cell-based
Candida krusei ATCC 6258 = assay: microbe, parasite or virus in culture; assay type: cell-based; details: Pichia kudriavzevii
[18] = test system: Trichophyton interdigitale ATCC 9533; assay: microbe, parasite or virus in culture; assay type: cell-based
[19] = test system: Candida parapsilosis ATCC 22019; assay: microbe, parasite or virus in culture; assay type: cell-based; details: Lodderomyces parapsilosis
[20] = test system: Candida tropicalis ATCC 750; assay: microbe, parasite or virus in culture; assay type: cell-based
[21] = read-out: IC50 cytotoxicity towards HepG2 cell line, CellTiter 96, 24 h incubation
[22] = read-out: MIC, all bacterial strains tested
[23] = mean ± SD, n = three independent experiments, BTCh 40 µM, read-out: IC50 BuChE
[24] = mean ± SD, n = three independent experiments, ATCh 40 µM, read-out: IC50 AChE
[25] = ATCC29212, 24 h, read-out: MIC EF 24 h
[26] = ATCC29212, 48 h, read-out: MIC EF 48 h
[27] = ATCC25922, 24 h, read-out: MIC EC 24 h
[28] = ATCC25922, 48 h, read-out: MIC EC 48 h
[29] = ATCC12228, 24 h, read-out: MIC SE 24 h
[30] = ATCC12228, 48 h, read-out: MIC SE 48 h
[31] = ATCC27853, 24 h, read-out: MIC PA 24 h
[32] = ATCC27853, 48 h, read-out: MIC PA 48 h
[33] = ATCC19606, 24 h, read-out: MIC ACI 24 h
[34] = ATCC19606, 48 h, read-out: MIC ACI 48 h
[35] = ATCC29213, 24 h, read-out: MIC SA 24 h
[36] = ATCC29213, 48 h, read-out: MIC SA 48 h
[37] = ATCC24443, 24 h, read-out: MIC CA 24 h
[38] = ATCC24443, 48 h, read-out: MIC CA 48 h
[39] = ATCC6258, 24 h, read-out: MIC CK 24 h
[40] = ATCC6258, 48 h, read-out: MIC CK 48 h
[41] = ATCC9533, 72 h, read-out: MIC TI 72 h
[42] = ATCC9533, 120 h, read-out: MIC TI 120 h
[43] = ATCC22019, 24 h, read-out: MIC CP 24 h
[44] = ATCC22019, 48 h, read-out: MIC CP 48 h
[45] = ATCC750, 24 h, read-out: MIC CT 24 h
[46] = ATCC750, 48 h, read-out: MIC CT 48 h

Sequence of BuChE from equine serum (EqBuChE) (P81908 whole entry): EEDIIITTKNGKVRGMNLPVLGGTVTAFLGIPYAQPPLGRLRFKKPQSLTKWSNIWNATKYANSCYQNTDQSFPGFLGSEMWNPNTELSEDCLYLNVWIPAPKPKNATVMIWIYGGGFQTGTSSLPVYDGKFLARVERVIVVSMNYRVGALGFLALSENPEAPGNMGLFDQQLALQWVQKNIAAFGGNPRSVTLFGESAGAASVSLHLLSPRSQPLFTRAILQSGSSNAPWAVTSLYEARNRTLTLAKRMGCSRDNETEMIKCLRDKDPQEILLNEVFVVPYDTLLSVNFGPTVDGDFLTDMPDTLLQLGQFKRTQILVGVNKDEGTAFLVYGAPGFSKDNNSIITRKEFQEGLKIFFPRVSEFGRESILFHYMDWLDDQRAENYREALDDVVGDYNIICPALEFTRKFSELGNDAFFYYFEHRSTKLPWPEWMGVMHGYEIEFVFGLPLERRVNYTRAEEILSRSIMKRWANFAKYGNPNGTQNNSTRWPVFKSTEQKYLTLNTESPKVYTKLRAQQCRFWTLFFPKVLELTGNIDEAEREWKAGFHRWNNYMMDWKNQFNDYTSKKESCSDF
Sequence of AChE from electric eel (EeAChE) (O42275 24-633): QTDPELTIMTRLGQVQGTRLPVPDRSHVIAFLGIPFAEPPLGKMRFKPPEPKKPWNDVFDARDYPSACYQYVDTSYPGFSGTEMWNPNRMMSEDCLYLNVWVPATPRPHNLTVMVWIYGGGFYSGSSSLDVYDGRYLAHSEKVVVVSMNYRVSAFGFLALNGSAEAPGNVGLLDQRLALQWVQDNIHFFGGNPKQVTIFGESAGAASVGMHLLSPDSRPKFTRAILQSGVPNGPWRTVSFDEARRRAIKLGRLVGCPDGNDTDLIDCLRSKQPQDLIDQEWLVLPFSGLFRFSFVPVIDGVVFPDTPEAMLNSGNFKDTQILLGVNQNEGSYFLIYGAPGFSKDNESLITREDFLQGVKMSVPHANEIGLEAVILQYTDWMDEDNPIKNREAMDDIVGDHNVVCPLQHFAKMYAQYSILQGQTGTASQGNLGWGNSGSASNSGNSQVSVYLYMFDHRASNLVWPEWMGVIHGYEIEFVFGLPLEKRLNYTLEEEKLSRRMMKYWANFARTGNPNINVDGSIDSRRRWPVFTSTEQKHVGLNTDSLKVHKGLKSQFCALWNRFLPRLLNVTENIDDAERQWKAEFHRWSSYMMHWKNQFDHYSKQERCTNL

| Structure (SMILES) | EC50 at 24 h (in vitro [3]; HepG2 cells) [µM] | IC50 [5, 23] | IC50 at 24 h (in vitro [6]) [µM] | EC50 (HepG2 cells [7]; HepG2, 24 h incubation) [µM] | IC50 [8, 24] [µM] | MIC [9, 25] [µM] | MIC [9, 26] [µM] | MIC [10, 27] [µM] | MIC [10, 28] [µM] | MIC KP 24 h [11] [µM] | MIC KP 48 h [11] [µM] | MIC [12, 29] [µM] | MIC [12, 30] [µM] | MIC ([13]; 24 h, read-out: MIC MRSA 24 h) [µM] | MIC ([13]; 48 h, read-out: MIC MRSA 48 h) [µM] | MIC [14, 31] [µM] | MIC [14, 32] [µM] | MIC [15, 33] [µM] | MIC [15, 34] [µM] | MIC [16, 35] [µM] | other results |
| --- | --- | --- | --- | --- | --- | --- | --- | --- | --- | --- | --- | --- | --- | --- | --- | --- | --- | --- | --- | --- | --- |
| [H]/N=C(\N)NN=Cc1cc(I)cc(I)c1O [Compound 1m, (E)-2-(2-Hydroxy-3,5-diiodobenzylidene)hydrazine-1-carboximidamide] | > 20 | < 20 µM and 3.57 µM | > 29 | 21.3 | 29 ± 2.49 |  |  |  |  |  |  |  |  |  |  |  |  |  |  |  | IC50 (HepG2 cells [1]; [21]): 56.5 µM; MIC [2]: ≥ 500 µM; MIC [4, 22]: ≥ 500 µM |
| [H]/N=C(\N)NN=Cc1ccc([N+](=O)[O-])o1 [Compound 1n, (E)-2-[(5-Nitrofuran-2-yl)methylene]hydrazine-1-carboximidamide] |  |  |  | 3.55 |  | 500 (≈ 98.6 µg/mL) | 500 (≈ 98.6 µg/mL) | 62.5 (≈ 12.3 µg/mL) | 125 (≈ 24.6 µg/mL) | 250 (≈ 49.3 µg/mL) | 250 (≈ 49.3 µg/mL) | 62.5 (≈ 12.3 µg/mL) | 125 (≈ 24.6 µg/mL) | 125 (≈ 24.6 µg/mL) | 125 (≈ 24.6 µg/mL) | 500 (≈ 98.6 µg/mL) | 500 (≈ 98.6 µg/mL) | 250 (≈ 49.3 µg/mL) | 500 (≈ 98.6 µg/mL) | 62.5 (≈ 12.3 µg/mL) | IC50 (HepG2 cells [1]; human): 10.4 µM; MIC [2]: ≥ 500 µM; EC50 at 24 h (in vitro [3]): < 6 µM; IC50 ([5]; IC50 BuChE): 204 ± 13.2 µM; IC50 (in vitro [6]): < 11 µM; MIC [16, 36]: 125 µM (≈ 24.6 µg/mL); IC50 [8]: 24.2 ± 0.75 µM; Selectivity AChE/BuChE [8]: 0.12; Type of inhibition of AChE [8]: mixed inhibition |
| NC(N)=NN=C1C(=O)Nc2ccccc21 [Compound 1p, 2-(2-Oxoindolin-3-ylidene)hydrazine-1-carboximidamide] | > 100 | < 20 µM and 17.5 µM | > 500 | 130 | 17.9 ± 0.9 |  |  |  |  |  |  |  |  |  |  |  |  |  |  |  | Cytotoxicity in HepG2 in words (HepG2 cells [1]; range of tested concentrations up to 500 µM): no significant cytotoxicity; MIC [2]: ≥ 500 µM; MIC [4, 22]: ≥ 500 µM; Type of inhibition of BuChE [5]: mixed inhibition; Selectivity AChE/BuChE [8]: 1.03; Type of inhibition of AChE [8]: mixed inhibition |
| CC(=O)Oc1c(I)cc(I)cc1/C=N/NC(=N)N [Compound 2a, (E)-2-[(2-Carbamimidoylhydrazineylidene)methyl]-4,6-diiodophenyl acetate] | > 20 | < 20 µM and 4.52 µM | > 29 | 30.4 | 20.5 ± 0.48 | 250 | 250 | 250 | 250 | 250 | 250 | 250 | 250 | 125 | 125 | > 500 | > 500 | 500 | 500 | 125 | IC50 (HepG2 cells [1]; [21]): 31.3 µM; MIC [17, 37]: 125 µM; MIC [17, 38]: 125 µM; MIC (Candida krusei ATCC 6258; [39]): 500 µM; MIC (Candida krusei ATCC 6258; [40]): 500 µM; MIC [18, 41]: 62.5 µM; MIC [18, 42]: 125 µM; Type of inhibition of BuChE [5]: mixed inhibition; MIC [19, 43]: 500 µM; MIC [19, 44]: 500 µM; MIC [16, 36]: 125 µM; MIC [20, 45]: 500 µM; MIC [20, 46]: 500 µM; Selectivity AChE/BuChE [8]: 4.54; Type of inhibition of AChE [8]: mixed inhibition |
| [H]/N=C(\N)NN=Cc1cc(I)cc(I)c1 [Compound 2c, (E)-2-(3,5-Diiodobenzylidene)hydrazine-1-carboximidamide] | < 6 | 85.5 ± 1.46 µM | < 11 | 5.44 | 29 ± 1.19 | 31.2 (≈ 12.9 µg/mL) | 31.2 (≈ 12.9 µg/mL) | 62.5 (≈ 25.9 µg/mL) | 62.5 (≈ 25.9 µg/mL) | 62.5 (≈ 25.9 µg/mL) | 62.5 (≈ 25.9 µg/mL) | 7.8 (≈ 3.23 µg/mL) | 7.8 (≈ 3.23 µg/mL) | 15.6 (≈ 6.47 µg/mL) | 15.6 (≈ 6.47 µg/mL) | 250 (≈ 103 µg/mL) | 250 (≈ 103 µg/mL) | 250 (≈ 103 µg/mL) | 250 (≈ 103 µg/mL) | 15.6 (≈ 6.47 µg/mL) | IC50 (HepG2 cells [1]; [21]): 9.84 µM; MIC [2]: ≥ 500 µM; MIC ([4]; read-out: MIC against staphylococci): 31.2 to 125 µM (≈ 12.9 to 51.7 µg/mL); MIC [16, 36]: 15.6 µM (≈ 6.47 µg/mL); Selectivity AChE/BuChE [8]: 0.34 |
| Cl.N=C(NN)N/N=C/c1cc(I)cc(I)c1O [Compound 2e, (E)-Hydrazineyl[2-(2-hydroxy-3,5-diiodobenzylidene)hydrazineyl]methaniminium chloride] | > 100 |  | > 100 |  |  | > 125 | > 125 | > 125 | > 125 | >125 | >125 | 31.2 | 31.2 | 125 | 125 | > 125 | > 125 | > 125 | > 125 | 62.5 | IC50 (HepG2 cells [1]; read-out: IC50 cytotoxicity towards HepG2 cell line): 120 µM; MIC [17, 37]: 125 µM; MIC [17, 38]: 125 µM; MIC (Candida krusei ATCC 6258; [39]): 125 µM; MIC (Candida krusei ATCC 6258; [40]): 125 µM; MIC [18, 41]: 125 µM; MIC [18, 42]: 125 µM; Type of inhibition of BuChE [5]: mixed inhibition; IC50 ([5]; read-out: IC50 BuChE): 1.69 ± 0.17 µM; MIC [19, 43]: 125 µM; MIC [19, 44]: 125 µM; EC50 (HepG2 cells [7]): 132 µM; MIC [16, 36]: 125 µM; MIC [20, 45]: 125 µM; MIC [20, 46]: 125 µM; IC50 [8]: 28.2 ± 0.98 µM |
| NC(=S)N/N=C/c1ccc([N+](=O)[O-])o1 [Compound 3e, (E)-2-[(5-Nitrofuran-2-yl)methylene]hydrazine-1-carbothioamide] | < 6 | > 500 µM | > 29 | 5.25 | 33.16 ± 0.06 | 125 (≈ 26.8 µg/mL) | 125 (≈ 26.8 µg/mL) | 125 (≈ 26.8 µg/mL) | 250 (≈ 53.6 µg/mL) | 62.5 (≈ 13.4 µg/mL) | 62.5 (≈ 13.4 µg/mL) | 31.2 (≈ 6.69 µg/mL) | 62.5 (≈ 13.4 µg/mL) | 62.5 (≈ 13.4 µg/mL) | 62.5 (≈ 13.4 µg/mL) | > 500 | > 500 | > 500 | > 500 | 62.5 (≈ 13.4 µg/mL) | IC50 (HepG2 cells [1]; [21]): 29.8 µM; MIC [16, 36]: 62.5 µM (≈ 13.4 µg/mL); Selectivity AChE/BuChE [8]: <0.07 |
